US6348609B1, “Method for obtaining an oil that is rich in hydroxyoctadecadienoic fatty acids (HODE) or the esters thereof from a mixture containing linoleic acid or the esters thereof” (Laboratoires Arkopharma, priority 1999, dated 2002)

Experiments:
[1] = skin penetration in vitro on human skin with Franz cells; assay type: in vitro ADME
Method: A study of skin penetration is carried out in vitro on human skin with Franz cells. These cells comprise a surface area of human skin of 1.76 cm^2 on which is placed 800 μg of 9-HODE. After 6 hours of contact, an assay of the 9-HODE is carried out by gas chromatography at the surface of the human skin sample, in the epidermis, in the dermis and in the receiving phase.

human adipocytes = test: production of cAMP in human adipocytes (lipolysis activation); assay type: cell-based
Excerpt: The aim of this study is to study the effect of 9-HODE on the production of cAMP (cyclic adenosine monophosphate) which is a lipolysis activator, in human adipocytes. The effect of 9-HODE is studied relative to that of adrenaline and caffeine which are two molecules that are known for their lipolysis-stimulating effects.

[2] = 800 μg on 1.76 cm^2 human skin, after 6 hours of contact
[3] = 9-HODE 10^−4 M, human adipocytes

Row | SMILES | 9-HODE assayed at the surface of the skin [1, 2] | 9-HODE assayed in the dermis [1, 2] | 9-HODE assayed in the epidermis [1, 2] | 9-HODE assayed in the receiving phase [1, 2] | skin-penetrating power ([1]; human skin, Franz cells) | concentration of cAMP, times greater than that obtained with caffeine (human adipocytes; 9-HODE 10^−3 M, human adipocytes) | increase in cAMP relative to adrenaline (human adipocytes; [3]) | increase in cAMP relative to caffeine (human adipocytes; [3]) | concentration of cAMP (human adipocytes; 9-HODE concentration of 10^−3 M, human adipocytes) | conclusion on lipolysis activation in vitro (human adipocytes; in vitro, by stimulating production of cAMP by adipocytes) | concentration of cAMP (human adipocytes; caffeine comparator, concentration not given, human adipocytes)
1 | CCCCCC=CC=CC(O)CCCCCCCC(=O)O (centres unmarked) [9-HODE, 9-hydroxy-10,12-octadecadienoic acid] | 33% | 32% | 11% | 24% | high skin-penetrating power | 10 times | greater than that obtained, irrespective of the concentration, by adrenaline | equivalent to that of caffeine 10^−3 M | 7.940 femtomol of cAMP/million adipocytes | powerful lipolysis activator | –
2 | Cn1c(=O)c2c(ncn2C)n(C)c1=O [caffeine, reference compound] | – | – | – | – | – | – | – | – | – | – | 799 femtomol of cAMP/million adipocytes
